# Measurements as given in ChEMBL document CHEMBL4020702, “Development of α1,6-fucosyltransferase inhibitors through the diversity-oriented syntheses of GDP-fucose mimics using the coupling between alkyne and sulfonyl azide” (Bioorg Med Chem, 2017).
# Biological target: T1, Alpha-(1,6)-fucosyltransferase (Homo sapiens) (UniProt Q9BYC5)
# T1 sequence (whole entry): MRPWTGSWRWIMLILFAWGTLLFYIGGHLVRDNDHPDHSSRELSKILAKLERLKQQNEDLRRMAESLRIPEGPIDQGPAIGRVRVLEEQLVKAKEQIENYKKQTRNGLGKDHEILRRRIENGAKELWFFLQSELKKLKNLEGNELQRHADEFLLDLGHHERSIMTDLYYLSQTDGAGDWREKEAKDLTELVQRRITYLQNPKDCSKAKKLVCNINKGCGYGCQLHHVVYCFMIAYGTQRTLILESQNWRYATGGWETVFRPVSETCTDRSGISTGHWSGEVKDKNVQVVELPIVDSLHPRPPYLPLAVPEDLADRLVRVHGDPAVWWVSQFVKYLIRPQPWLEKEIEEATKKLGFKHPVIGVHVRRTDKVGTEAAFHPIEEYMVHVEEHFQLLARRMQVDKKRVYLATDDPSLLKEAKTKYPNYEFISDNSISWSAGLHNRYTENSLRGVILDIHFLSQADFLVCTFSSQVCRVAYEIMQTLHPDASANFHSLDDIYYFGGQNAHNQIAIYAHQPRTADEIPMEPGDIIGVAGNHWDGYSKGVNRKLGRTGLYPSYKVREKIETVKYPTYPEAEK
# Assay: Inhibition of FUT8 in human […] cells at 100 uM using (S)-2-(((9H-fluoren-9-yl)methoxy)carbonylamino)-4-((2R,3R,4R,5S,6R)-3-acetamido-5-((2S,3R,4R,5S,6R)-3-acetamido-5-((2S,3S,4S,5R,6R)-4-((2R,3S,4S,5S,6R)-3-((2S,3R,4R,5S,6R)-3-acetamido-4,5-dihydroxy-6-(hydroxymethyl)tetrahydro-2H-pyran-2-yloxy)-4,5-dihydroxy-6-(hydroxymethyl)tetrahydro-2H-pyran-2-yloxy)-6-(((2S,3S,4S,5S,6R)-3-((2S,3R,4R,5S,6R)-3-acetamido-4,5-dihydroxy-6-(hydroxymethyl)tetrahydro-2H-pyran-2-yloxy)-4,5-dihydroxy-6-(hydroxymethyl)tetrahydro-2H-pyran-2-yloxy)methyl)-3,5-dihydroxytetrahydro-2H-pyran-2-yloxy)-4-hydroxy-6-(hydroxymethyl)tetrahydro-2H-pyran-2-yloxy)-4-hydroxy-6-(hydroxymethyl)tetrahydro-2H-pyran-2-ylamino)-4-oxobutanoic acid as substrate after 24 hrs in presence of GDP-fucose by HPLC method relative to control
# Format: cell-based
row,inhibition [%],Structure (SMILES)
1,39,CCN(CC)/C(CCO[C@H]1O[C@@H](C)[C@@H](O)[C@@H](O)[C@@H]1O)=N\S(=O)(=O)CCCCCn1cnc2c(=O)[nH]c(N)nc21
2,45,C[C@@H]1O[C@H](OCc2cn(S(=O)(=O)CCCCCn3cnc4c(=O)[nH]c(N)nc43)nn2)[C@@H](O)[C@H](O)[C@@H]1O
3,41,CCCN/C(CCO[C@H]1O[C@@H](C)[C@@H](O)[C@@H](O)[C@@H]1O)=N\S(=O)(=O)CCCCCn1cnc2c(=O)[nH]c(N)nc21
4,31,C[C@@H]1O[C@H](OCCC(=O)NS(=O)(=O)CCCCCn2cnc3c(=O)[nH]c(N)nc32)[C@@H](O)[C@H](O)[C@@H]1O
5,14,CCCS/C(CCO[C@H]1O[C@@H](C)[C@@H](O)[C@@H](O)[C@@H]1O)=N\S(=O)(=O)CCCCCn1cnc2c(=O)[nH]c(N)nc21
6,57,CO/C(CCO[C@H]1O[C@@H](C)[C@@H](O)[C@@H](O)[C@@H]1O)=N\S(=O)(=O)CCCCCn1cnc2c(=O)[nH]c(N)nc21
